According to patent publication US11400106B2, “Methods for inhibiting microbe growth” (priority 2018, dated 2022):
Like-named read-outs stand apart in the source and are kept apart here. Where a SMILES comes first, the peptide text is derived from it.

Experiments:
[1] = system: E. coli; assay: microbe, parasite or virus in culture; type: cell-based, Escherichia coli; conditions: for MIC: Escherichia coli
Protocol: (§1) In the following experiments, bacterial cells were cultured in 96-well microtiter plates in cation-adjusted Mueller-Hinton Broth (MHB) for 18 h at 37° C. The main strains used were E. coli (K-12 BW25113) (placed in stationary incubator) and S. aureus (Newman Strain) (incubated at 250 r.p.m). Knockout strains (ΔtolcC and ΔychM) were used from the Keio knockout collection (Baba et al., Construction of Escherichia coli K-12 in-frame, single-gene knockout mutants: the Keio collection. Mol Syst Biol 2, 2006 0008, doi:10.1038/msb4100050 (2006)). For MIC determination and checkerboard analyses, Clinical & Laboratory Standards Institute (CLSI) protocol was used. […] DiSC3 loading of S. aureus cells was performed as previously described (Farha et al., Collapsing the proton motive force to identify synergistic combinations against Staphylococcus aureus. Chemistry & biology 20, 1168-1178, doi:10.1016/j.chembiol.2013.07.006 (2013)). CCCP concentration of 20 μM was used. pH adjustments were made by addition of HCl or NaOH. INT assay and ATP bioluminescence assays were performed as previously described (Farha et al., Collapsing the proton motive force to identify synergistic combinations against Staphylococcus aureus. Chemistry & biology 20, 1168-1178, doi:10.1016/j.chembiol.2013.07.006 (2013)). For chemical-genomic studies, the Keio library was grown overnight in cation-adjusted MHB broth, in 384-well plates. From these, treatment plates (25 mM sodium bicarbonate, or a sterile water control) were inoculated and grown for 15 hours at 37° C., in a stationary incubator. Data was normalized according to Mangat et al (Mangat et al., Rank ordering plate data facilitates data visualization and normalization in high-throughput screening. J Biomol Screen 19, 1314-1320, doi:10.1177/1087057114534298 (2014)), with gene products and GO terms mined from EcoCyc. The GFP promoter library (Keseler et al., EcoCyc: fusing model organism databases with systems biology. Nucleic Acids Res 41, D605-612, doi:10.1093/nar/gks1027 (2013)) was grown for 18 hours at ambient temperature with the same inoculation strategy as with the Keio collection. The analysis pipeline of Zaslaver et al (Zaslaver et al., A comprehensive library of fluorescent transcriptional reporters for Escherichia coli. Nat Methods 3, 623-628, doi:10.1038/nmeth895 (2006)) was used to generate maps of promoter activity, from which lists of promoters with increased or decreased activity were compiled.
(§2) Fold enhancement in MICs in the media supplemented with sodium bicarbonate is represented by a positive fold, whereas suppression of activity is represented by a negative fold.
(§3) The effect of sodium bicarbonate on the activity of additional antibacterial agents was investigated. Clinical isolates of various bacteria were obtained from the ATCC and the IHMA.
(§4) The effect of sodium bicarbonate on the activity of cationic antiseptic agents was investigated. Clinical isolates of various bacteria were obtained from the ATCC and the IHMA.

[2] = system: S. aureus; assay: microbe, parasite or virus in culture; conditions: for MIC: Staphylococcus aureus, read-out: MIC, S. aureus, MHB−; for MIC, S. aureus, MHB: MHB in the absence of sodium bicarbonate; for Fold, S. aureus: fold shift in MIC
Protocol: as §1, §2, §3, §4

[3] = 18 h, antibiotic agents, MHB in the absence of sodium bicarbonate, read-out: MIC, E. coli, MHB−
[4] = 18 h, MHB in the absence of sodium bicarbonate, read-out: MIC, E. coli, MHB−
[5] = antiseptic agents, MHB in the presence of 25 mM sodium bicarbonate

| Compound | MIC, E. coli, MHB+ [1] | MIC, S. aureus, MHB+ [2] | MIC ([2]; 18 h) | MIC [1, 4] | other results |
| --- | --- | --- | --- | --- | --- |
| CC[C@H](C)[C@@H]1NC(=O)[C@H](CCCNC(=N)N)NC(=O)[C@@H](NC(=O)[C@H](CC(C)C)NC(=O)[C@@H](N)CCCNC(=N)N)CSSC[C@@H](C(=O)N[C@@H](CCCNC(=N)N)C(=O)O)NC(=O)[C@H](C(C)C)NC(=O)[C@H](CCCNC(=N)N)NC(=O)[C@H]([C@@H](C)CC)NC(=O)[C@H](C(C)C)NC(=O)[C@H](C(C)C)NC1=O [Bactenesin] (HELM PEPTIDE1{R.L.C.R.I.V.V.I.R.V.C.R}$PEPTIDE1,PEPTIDE1,3:R3-11:R3$$$V2.0; N-terminus and C-terminus assumed; bridges inferred) |  |  |  |  | enhancement of antimicrobial activity in the presence of bicarbonate [1]: 256 fold; MIC in MHB ([2]; Newman, 18 h): 128 µg/mL; MIC in MHB + 25 mM bicarbonate ([2]; Newman, 18 h): 0.5 µg/mL |
| CC(=O)O[C@H]1C[C@@]2(C)[C@@H](C[C@@H](O)[C@H]3[C@@]4(C)CC[C@@H](O)[C@@H](C)[C@@H]4CC[C@@]32C)/C1=C(\CCC=C(C)C)C(=O)O [Fusidic acid] | >128 μg of antimicrobial agent/mL of buffer | 2 μg of antimicrobial agent/mL of buffer | 0.5 µg/mL |  | MIC [1, 3]: > 128 µg/mL |
| NCC[C@H](O)C(=O)N[C@@H]1C[C@H](N)[C@@H](O[C@H]2O[C@H](CN)[C@@H](O)[C@H](O)[C@H]2O)[C@H](O)[C@H]1O[C@H]1O[C@H](CO)[C@@H](O)[C@H](N)[C@H]1O [Amikacin] | 4 μg of antimicrobial agent/mL of buffer | 8 μg of antimicrobial agent/mL of buffer | 4 µg/mL |  | MIC [1, 3]: 4 µg/mL |
| CCn1cc(C(=O)O)c(=O)c2ccc(C)nc21 [Nalidixic acid] |  | 32 | > 8 µg/mL | 2 µg/mL | effect of 25 mM sodium bicarbonate on antibacterial activity [1]: suppressed |
| NC[C@@H]1O[C@H](O[C@H]2[C@@H](O)[C@H](O[C@@H]3[C@@H](O)[C@H](N)C[C@H](N)[C@H]3O[C@H]3O[C@H](CO)[C@@H](O)[C@H](O)[C@H]3N)O[C@@H]2CO)[C@H](N)[C@@H](O)[C@@H]1O [Paromomycin] |  | 2 | 2 µg/mL | 2 µg/mL |  |
| CC[C@H]1OC(=O)[C@H](C)[C@@H](O[C@H]2C[C@@](C)(OC)[C@@H](O)[C@H](C)O2)[C@H](C)[C@@H](O[C@@H]2O[C@H](C)C[C@H](N(C)C)[C@H]2O)[C@](C)(O)C[C@@H](C)[C@@H]2N[C@@H](COCCOC)O[C@H]([C@H]2C)[C@]1(C)O [Dirithromycin] |  | 0.5 | 4 µg/mL | 128 µg/mL | MIC ([1]; E. coli, no salt, pH adjusted to 7.4, read-out: MIC of dirithromycin, control): 128 µg/mL |
| CCN1CCN(C(=O)N[C@@H](C(=O)N[C@@H]2C(=O)N3C(C(=O)O)=C(CSc4nnnn4C)CS[C@H]23)c2ccc(O)cc2)C(=O)C1=O [Cefoperazone] |  | 4 | 0.25 µg/mL | 0.125 µg/mL |  |
| CC(=O)NC[C@H]1CN(c2ccc(N3CCOCC3)c(F)c2)C(=O)O1 [Linezolid] |  | 0.625 | 0.625 µg/mL | 256 µg/mL | effect of 25 mM sodium bicarbonate on antibacterial activity [1]: remained largely unchanged; effect of 25 mM sodium bicarbonate on antibacterial activity ([2]; S. aureus, result in words): remained largely unchanged |
| Benzalkonium chloride | 8 μg of antimicrobial agent/mL of buffer |  |  |  | Fold, E. coli [1]: 4; MIC, E. coli, MHB [1]: 32 μg of antimicrobial agent/mL of buffer; MIC, S. aureus, MHB ([2]; antiseptic agents): 0.5 μg of antimicrobial agent/mL of buffer; MIC, S. aureus, MHB+ [2, 5]: 0.25 μg of antimicrobial agent/mL of buffer; Fold, S. aureus ([2]; antiseptic agents): 2 |
| N=C(N)c1ccc(OCCCOc2ccc(C(=N)N)cc2Br)c(Br)c1.O=S(=O)(O)CCO.O=S(=O)(O)CCO [Dibrompropamidine diisetionate] |  |  |  |  | MIC, E. coli, MHB ([1]; antiseptic agents, MHB in the absence of sodium bicarbonate): 64 μg of antimicrobial agent/mL of buffer; MIC, E. coli, MHB+ [1, 5]: 16 μg of antimicrobial agent/mL of buffer; Fold, E. coli ([1]; antiseptic agents, fold shift in MIC): 4; MIC, S. aureus, MHB ([2]; antiseptic agents): 4 μg of antimicrobial agent/mL of buffer; MIC, S. aureus, MHB+ [2, 5]: 1 μg of antimicrobial agent/mL of buffer; Fold, S. aureus ([2]; antiseptic agents): 4 |
| CCC[C@@H]1C[C@@H](C(=O)N[C@@H]([C@H]2O[C@H](SC)[C@H](O)[C@@H](O)[C@H]2O)[C@@H](C)O)N(C)C1 [Lincomycin] | 32 μg of antimicrobial agent/mL of buffer | 0.0625 μg of antimicrobial agent/mL of buffer | 0.25 µg/mL |  | MIC [1, 3]: > 128 µg/mL |
